# Patent publication US20110070232A1, “Combination Therapy with an Antitumor Alkaloid” (Pharma Mar, S.A., priority 2008, published 2011)
# Like-named read-outs stand apart in the source and are kept apart here.
# Key:
# MIA PaCa-2 tumors = assay type: in vivo, mice; details: mg/kg/day: PM00104 0.90 IV
# Source text: (§1) Female athymic nude mice (Harlan Sprague Dawley, Madison, Wis.) were utilized for all experiments. Animals were housed in ventilated rack caging with food and water ad libitum. The mice were acclimated for at least 5 days prior to tumor implantation with a tumor cell suspension.
# The tumor model used in these studies was MIAPaCA-2 cell line, which was obtained from the ATCC (Manassas, Va.).
# Each animal was implanted subcutaneously (SC) on the right flank, using a trochar, with 1×10^7 MIAPaCA-2 cells, from in vitro passage 18, in a 0.2 mL suspension of 50% Matrigel/50% serum free medium, without antibiotics. Matrigel is a biological extracellular matrix that is liquid at 4° C. and solid at 37° C., and it promotes tumor growth by maintaining the cells in close association in a localized area. Bacterial cultures were performed on aliquots of the cells prepared for implantation.
# Tumor measurements were determined by using Vernier calipers. The formula to calculate volume for a prolate ellipsoid was used to estimate tumor volume (mm^3) from 2-dimensional tumor measurements: Tumor volume (mm^3)=[L×W^2]÷2, where L is the length and it is the longest diameter in mm, and W is the width and it is the shortest diameter in mm of a tumor. Assuming unit density, volume was converted to weight (i.e., 1 mm^3=1 mg).
# Treatments were initiated on DPI (Day Post Implantation) 13. In these experiments, the combination therapy groups were treated by co-administering the two drugs at the same time, with no attempt to sequence the treatments.
# (§2) Tumor size measurements were recorded twice weekly from the treatment initiation until the termination of the study.
# (§3) Mean, standard deviation and standard error of the mean were determined for tumor volume for all animal groups at all assessments. Student's t test was performed on tumor volumes at each measurement day, including at the end of the study, to determine whether there were any statistically significant differences between combination treatment groups and single monotherapy treatment groups.
# The definition and criteria for the evaluation of potentiation and the degree of additivity for the combination therapy were as follows:
# Additivity was determined as discussed above by comparing the % of tumor growth inhibition of the monotherapy groups versus those of the combination group as follows: • 1. Determine the % of tumor growth inhibition, as 100-% T/C, for each of the drugs administered as monotherapy at the doses used in the combinations. % T/C was obtained by comparing the mean tumor weight in the treatment groups (T) to the mean tumor weight in the control group (C) (T/C×100%). • 2. The two scores were added together to determine the “expected response” if each agent produced the same response as it did when administered as monotherapy. • 3. This “expected response” was subtracted from the % of tumor growth inhibition determined for the combination therapy group: • a. […] If the resulting number was close to zero, the effect of combining the two drugs was determined as additive. • c.
# [1] = tested on: 5637 human bladder carcinoma cell line; assay: IC50 determination, MTS assay, 72 h (Example 2); assay type: cell-based; details: 72 hours of drug exposure
# Method: (§4) The following agents were evaluated in combination with PM00104: gemcitabine (Gemzar®) and cisplatin. The human bladder carcinoma cell lines selected for this assay were the following: 5637 and UM-UC-3 cell lines. 5637 cell line was grown in RPMI 1640 medium supplemented with 10% FBS, 1.5 g/L sodium bicarbonate, 4.5 g/L glucose, 10 mM HEPES, 1 mM sodium pyruvate, and 2 mM L-glutamine. UM-UC-3 cell line was grown in MEM Eagle's medium supplemented with 10% FBS and 2 mM L-glutamine.
# (§5) a. […] It was used the same methodology as those disclosed in Example 1.
# (§6) IC50 values were calculated from an average of three to four assays for each of the test agents.
# [2] = tested on: UM-UC-3 human bladder carcinoma cell line; assay: IC50 determination, MTS assay, 72 h (Example 2); assay type: cell-based; details: 72 hours of drug exposure
# Method: as §4, §5, §6
# Hs746T tumors = assay type: in vivo, mice; details: mg/kg/day: PM00104 0.90 IV, cisplatin 5 IP, paclitaxel 10 IP
# Source text: as §1, with “suspension. The Vehicle Control group contained 11 mice, groups 2-4 contained 7 mice and the rest of groups contained 8 mice.” for “suspension.”
# The tumor model used in these studies was Hs746T cell line, which was obtained from the ATCC (Manassas, Va.).
# Hs746T cells were grown in DMEM supplemented with 10% FBS, 1.5 g/L sodium bicarbonate, 4.5 g/L glucose, and 4 mM L-glutamine. Each animal was implanted SC on the right flank, using a trochar, with 5×10^6 Hs746T cells, from in vitro passage 18, in a 0.2 mL suspension of 50% Matrigel and 50% serum free medium, without antibiotics. Bacterial cultures were performed on aliquots of the cells prepared for implantation.
# Treatments were initiated on DPI 16.
# as §2, §3
# [3] = tested on: NCI-H23 (lung cancer) cell line; assay: IC50 determination, MIT (tetrazolium) assay, 72 h (Example 18); assay type: cell-based, human; details: NCI-H23, 72 hours of drug exposure
# Method: NCI-H23 cells were grown in RPMI supplemented with 10% Fetal Bovine Serum (FBS), 1% penicillin/streptomycin and 2 mM L-glutamine.
# Before plating, cell cultures were trypsinized and cell number estimated using an automated flow cytometer.
# Cells were harvested and seeded in 96 well microtiter plates at the appropriate cell density (5,000-10,000 cells) in 150 μL of media and incubated for 24 hours to allow the cells to attach before drug addition.
# After the incubation period (72 hours), 50 μL of MIT solution was added to each microtiter well and incubated for further 8 hours at 37° C. The culture medium was then removed and 50 μl, of DMSO were added to dissolve the MIT crystals. Optical densities were read at 540 nm on spectrophotometer microplate reader.
# IC50 values were calculated from an average of two to four assays for each of the test agents.
# [4] = day 13, gemcitabine 140 IP, erlotinib 100 PO
# [5] = day 15, gemcitabine 140 IP, erlotinib 100 PO
# [6] = day 22, gemcitabine 140 IP, erlotinib 100 PO
# [7] = day 27, gemcitabine 140 IP, erlotinib 100 PO
# [8] = day 29, gemcitabine 140 IP, erlotinib 100 PO
# [9] = day 33, gemcitabine 140 IP, erlotinib 100 PO
# [10] = day 36, gemcitabine 140 IP, erlotinib 100 PO
smiles,measurement,setting,value
C#Cc1cccc(Nc2ncnc3cc(OCCOC)c(OCCOC)cc23)c1 [erlotinib],% Inhibition,"MIA PaCa-2 tumors; day 13, erlotinib 50 PO",−1.5%
same,% T/C on day,"MIA PaCa-2 tumors; day 13, erlotinib 50 PO",101.5%
same,% Inhibition,MIA PaCa-2 tumors; [4],−3.3%
same,% T/C on day,MIA PaCa-2 tumors; [4],103.3%
same,% Inhibition,"MIA PaCa-2 tumors; day 15, erlotinib 50 PO",3.3%
same,% T/C on day,"MIA PaCa-2 tumors; day 15, erlotinib 50 PO",96.7%
same,% Inhibition,MIA PaCa-2 tumors; [5],−15.4%
same,% T/C on day,MIA PaCa-2 tumors; [5],115.4%
same,% Inhibition,"MIA PaCa-2 tumors; day 19, erlotinib 50 PO",−13.2%
same,% T/C on day,"MIA PaCa-2 tumors; day 19, erlotinib 50 PO",113.2%
same,% Inhibition,"MIA PaCa-2 tumors; day 19, gemcitabine 140 IP, erlotinib 100 PO",−22.5%
same,% Inhibition,"MIA PaCa-2 tumors; day 22, erlotinib 50 PO",−4.4%
same,% T/C on day,"MIA PaCa-2 tumors; day 22, erlotinib 50 PO",104.4%
same,% Inhibition,MIA PaCa-2 tumors; [6],3.6%
same,% T/C on day,MIA PaCa-2 tumors; [6],96.4%
same,% Inhibition,"MIA PaCa-2 tumors; day 27, erlotinib 50 PO",−48.6%
same,% T/C on day,"MIA PaCa-2 tumors; day 27, erlotinib 50 PO",148.6%
same,% Inhibition,MIA PaCa-2 tumors; [7],4.0%
same,% T/C on day,MIA PaCa-2 tumors; [7],96.0%
same,% Inhibition,"MIA PaCa-2 tumors; day 29, erlotinib 50 PO",−32.0%
same,% T/C on day,"MIA PaCa-2 tumors; day 29, erlotinib 50 PO",132.0%
same,% Inhibition,MIA PaCa-2 tumors; [8],3.7%
same,% T/C on day,MIA PaCa-2 tumors; [8],96.4%
same,% Inhibition,"MIA PaCa-2 tumors; day 33, erlotinib 50 PO",−15.4%
same,% T/C on day,"MIA PaCa-2 tumors; day 33, erlotinib 50 PO",115.3%
same,% Inhibition,MIA PaCa-2 tumors; [9],−2.7%
same,% T/C on day,MIA PaCa-2 tumors; [9],102.7%
same,% Inhibition,"MIA PaCa-2 tumors; day 36, erlotinib 50 PO",−17.7%
same,% T/C on day,"MIA PaCa-2 tumors; day 36, erlotinib 50 PO",117.7%
same,% Inhibition,MIA PaCa-2 tumors; [10],−6.0%
same,% T/C on day,MIA PaCa-2 tumors; [10],106.0%
"N.N.[Cl][Pt][Cl] [Cisplatin, cisplatin]",IC50,[1],2.4 µg/mL
same,IC50,[2],0.53 µg/mL
same,% Inhibition,Hs746T tumors; day 16,3.2%
same,% T/C on day,Hs746T tumors; day 16,96.8%
same,% Inhibition,Hs746T tumors; day 20,39.5%
same,% T/C on day,Hs746T tumors; day 20,60.5%
same,% Inhibition,Hs746T tumors; day 23,48.3%
same,% T/C on day,Hs746T tumors; day 23,51.7%
same,% Inhibition,Hs746T tumors; day 26,55.8%
same,% T/C on day,Hs746T tumors; day 26,44.2%
same,% Inhibition,Hs746T tumors; day 29,56.7%
same,% T/C on day,Hs746T tumors; day 29,43.3%
same,% Inhibition,Hs746T tumors; day 33,53.3%
same,% T/C on day,Hs746T tumors; day 33,46.7%
same,% Inhibition,Hs746T tumors; day 36,53.7%
same,% T/C on day,Hs746T tumors; day 36,46.3%
same,IC50,[3],10 µM
